US11491165B2 (Kinoxis Therapeutics Pty Ltd, priority 2016, dated 2022)

Legend:
[1] = biological target: T1, vasopressin 1a receptor (V1aR) (Homo sapiens, UniProt P37288); assay: IP1 accumulation assay, V1aR-expressing HEK-293 cells (agonist and antagonist assessment); format: cell-based; conditions: for EC50: agonist assessment, IP1, 1 h; for IC50: antagonist assessment vs AVP 25 nM (~EC70), IP1
T1 construct: expressed in transfected cells
Method: Cells were subsequently maintained in 10% DMEM containing hygromycin (80 μg/ml), penicillin (100 U/ml), streptomycin (0.1 mg/ml) and blasticidine S hydrochloride (15 μg/ml).
Cells were incubated in tetracycline (2 μg/mL) for 48 h to induce receptor expression. Intracellular IP1 levels induced by activation of the Gq protein coupled to the OTR and V1aR was indexed using the HTRF IP-One kit (CisBio International, Bedford, Mass., USA), according to manufacturer's protocol. For agonist assessment, cells were incubated with logarithmically-spaced concentrations of compounds (1 nM-100 μM) for 1 h prior to the addition of Ab-Cryptate and IP1-d2 for 1 h. The contents of each well were transferred to a white-walled proxy plate (Perkin Elmer) and fluorescence read using a Pherastar Microplate reader (BMG Labtech, Cary, N.C., USA). […] IP1 levels in the presence of compounds and OT or AVP were expressed as a percentage of levels seen with OT or AVP in the presence of vehicle control. Concentration response curves for OT and AVP were determined after 5 min incubation in drug or vehicle, and the data fitted using GraphPad PRISM to a 4-parameter logistic equation of the form y=Min+(Max−Min)/(1+10^((logEC50−X)*n)) where X is drug concentration and n is the H-ill slope. Data represent the mean±s.d. of at least 3 independent experiments, each in duplicate.

[2] = biological target: T2, oxytocin receptor (OXTR), hOTR (Homo sapiens, UniProt P30559); assay: Competition radioligand binding, [3H]-oxytocin, OTR-expressing HEK293 membranes; conditions: [3H]-oxytocin 10 nM, 90 min 4 °C
T2 construct: expressed in transfected cells
T2 sequence (P30559 1-389): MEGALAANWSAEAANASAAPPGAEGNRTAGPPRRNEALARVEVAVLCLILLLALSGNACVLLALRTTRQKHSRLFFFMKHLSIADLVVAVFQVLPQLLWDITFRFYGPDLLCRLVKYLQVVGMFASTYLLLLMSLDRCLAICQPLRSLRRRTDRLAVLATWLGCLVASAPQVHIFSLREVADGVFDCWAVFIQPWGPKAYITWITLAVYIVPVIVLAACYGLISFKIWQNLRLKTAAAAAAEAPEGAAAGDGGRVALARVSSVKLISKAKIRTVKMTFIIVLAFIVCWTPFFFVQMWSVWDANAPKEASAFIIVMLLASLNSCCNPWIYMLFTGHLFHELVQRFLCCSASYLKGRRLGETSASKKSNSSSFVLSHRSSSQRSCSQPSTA
Method: (§1) Human embryonic kidney cells (HEK-293) transfected to stably express untagged hOTR and V1aR using the Flp-In™ T-REx™ system (Life Technologies, Carlsbad, Calif. USA) were established as reported in Jorgensen et al., 2016 (the entire disclosure of which is hereby incorporated by reference). Cells were subsequently maintained in 10% DMEM containing hygromycin (80 μg/ml), penicillin (100 U/ml), streptomycin (0.1 mg/ml) and blasticidine S hydrochloride (15 μg/ml).
(§2) To induce receptor expression, cells were incubated with tetracycline (2 μg/mL) for 48 h. PBS with 5 mM EDTA (pH 7.4) was used to detach OTR and V1aR-expressing HEK293 cells from culture flasks. Harvested cells were centrifuged at 1200 g for 5 min and were resuspended in homogenization buffer (50 mM HEPES, 5 mM EDTA, 5 mM MgCl2; pH 7.4) prior to homogenization using an Ultra-Turrax homogeniser (IKA, Wilmington, N.C., USA). Homogenates were centrifuged three times for 30 min at 48.000 g, 4° C. for 30 min and membrane pellets resuspended in 50 mM Tris HCl, 5 mM MgCl2 (pH 7.4). A bicinchoninic acid assay was used according to the manufacturer's protocol (Bio-Rad, Hercules. Calif., USA) to measure final protein concentration. Membranes were stored at −80° C. until use in competition radioligand binding studies.
(§3) Reactions were incubated for 90 min at 4° C. to reach equilibrium, and terminated by rapid filtration over glass fibre filters (Whatman GF/A […]; Millipore, Darmstadt, Germany), and washing with ice-cold reaction buffer. Filters were dried, then incubated with Microscint 0 (Perkin Elmer) for 30 min before radioactivity was detected with a Microbeta2 2450 microplate-reader (Perkin Elmer). […] Specific binding in the presence of compounds was expressed as a percentage of specific binding in the presence of vehicle control. A sum-of-squares F-test was used to compare the goodness of fit of one-site, two-site and sigmoidal with variable hill slope binding models, and to calculate Ki's using Graphpad Prism (Graphpad Software, La Jolla, Calif., USA).

[3] = biological target: T1, vasopressin 1a receptor (V1aR); assay: Competition radioligand binding, [3H]-vasopressin, V1aR-expressing HEK293 membranes; conditions: [3H]-vasopressin 2 nM, 90 min 4 °C
Method: as §1, §2, §3

[4] = biological target: T2, oxytocin receptor (OXTR), hOTR; assay: IP1 accumulation assay, OTR-expressing HEK-293 cells (agonist and antagonist assessment); format: cell-based; conditions: for EC50 / EC50 (OXTR agonist potency, mean ± s.d.): agonist assessment; for EC50: IP1, 1 h; for Emax: HEK293, read-out: OXTR Emax (% OXT); for OV function: ratio of OXTR functional potency to V1aR functional potency, 'OT only' = function at OXTR only
Method: as §1
OTR or V1aR-expressing HEK-293 cells were seeded onto poly-L-lysine (100 μg/ml)-coated 384-well plates at a density of 8.75×10^3 cells per well. Cells were incubated in tetracycline (2 μg/mL) for 48 h to induce receptor expression. Intracellular IP1 levels induced by activation of the Gq protein coupled to the OTR and V1aR was indexed using the HTRF IP-One kit (CisBio International, Bedford, Mass., USA), according to manufacturer's protocol. For agonist assessment, cells were incubated with logarithmically-spaced concentrations of compounds (1 nM-100 μM) for 1 h prior to the addition of Ab-Cryptate and IP1-d2 for 1 h. The contents of each well were transferred to a white-walled proxy plate (Perkin Elmer) and fluorescence read using a Pherastar Microplate reader (BMG Labtech, Cary, N.C., USA). For antagonist assessment, cells were incubated an ˜EC70 concentration of OT (30 nM) or AVP (25 nM) mixed with compounds (1 nM-100 μM) or vehicle control for 1 h. IP1 levels in the presence of compounds and OT or AVP were expressed as a percentage of levels seen with OT or AVP in the presence of vehicle control. Concentration response curves for OT and AVP were determined after 5 min incubation in drug or vehicle, and the data fitted using GraphPad PRISM to a 4-parameter logistic equation of the form y=Min+(Max−Min)/(1+10^((logEC50−X)*n)) where X is drug concentration and n is the H-ill slope. Data represent the mean±s.d. of at least 3 independent experiments, each in duplicate.

T1 sequence (P37288 whole entry): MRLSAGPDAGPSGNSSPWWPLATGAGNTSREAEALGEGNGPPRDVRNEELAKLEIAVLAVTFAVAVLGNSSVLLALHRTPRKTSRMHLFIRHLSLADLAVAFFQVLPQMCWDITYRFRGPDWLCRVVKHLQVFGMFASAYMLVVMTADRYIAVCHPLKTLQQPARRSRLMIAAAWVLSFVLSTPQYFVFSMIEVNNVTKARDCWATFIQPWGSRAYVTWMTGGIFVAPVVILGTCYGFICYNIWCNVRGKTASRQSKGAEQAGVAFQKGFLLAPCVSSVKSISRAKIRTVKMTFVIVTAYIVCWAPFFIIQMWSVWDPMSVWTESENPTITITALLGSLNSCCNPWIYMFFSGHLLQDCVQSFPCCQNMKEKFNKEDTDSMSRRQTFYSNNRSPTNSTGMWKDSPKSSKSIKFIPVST

## Cn1ncc2c1Nc1ccccc1N(C(=O)C1C(C)(C)C1(C)C)C2 [TRGA111, (1-methyl-4,10-dihydrobenzo[b]pyrazolo[3,4-e][1,4]diazepin-5 (1H)-yl)(2,2,3,3-tetramethylcyclopropyl)methanone]
[1]
  EC50: > 10000 nM
  IC50: > 10000 nM
[2]
  Ki: > 10000 nM
[3]
  Ki: > 10000 nM
[4]
  EC50: > 10000 nM
[4]; antagonist assessment vs OT 30 nM (~EC70), IP1
  IC50: > 10000 nM

## Cn1ncc2c1Nc1ccccc1N(C(=O)c1ccc(Br)cc1)C2 [WJ0820, (4-Bromophenyl)(1-methyl-4,10-dihydrobenzo[b]pyrazolo[3,4-e][1,4]diazepin-5 (1H)-yl)methanone]
other
  melting point: 249 to 251 °C

## Cn1ncc2c1Nc1ccccc1N(C(=O)c1cc(OCc3ccccc3)cc(OCc3ccccc3)c1)C2 [Example 9, (3,5-Bis(benzyloxy)phenyl)(1-methyl-4,10-dihydrobenzo[b]pyrazolo[3,4-e][1,4]diazepin-5 (1H)-yl)methanone]
other
  melting point: 221 to 224 °C

## COC(=O)C12CCC(C(=O)N3Cc4cnn(C)c4Nc4ccccc43)(CC1)CC2 [BcO-MC, methyl 4-(1-methyl-1,4,5,10-tetrahydrobenzo[b]pyrazolo[3,4-e][1,4]diazepine-5-carbonyl)bicyclo[2.2.2]octane-1-carboxylate]
other
  melting point: 198 to 211 °C

## Cn1ncc2c1Nc1ccccc1N(C(=O)c1ccc(C(=O)O)cc1)C2 [TAR-C077, 4-(1-methyl-1,4,5,10-tetrahydrobenzo[b]pyrazolo[3,4-e][1,4]diazepine-5-carbonyl)benzoic acid]
other
  melting point: > 300 °C

## Cc1cc(C(=O)N2Cc3cnn(C)c3Nc3ccccc32)ccc1CN [WJ0761]
[1]
  EC50: > 10000 nM
  IC50: > 10000 nM
[2]
  Ki: > 10000 nM
[3]
  Ki: 44.7 ± 5 nM
[4]
  Emax: 8%
  EC50: 9190 ± 1620 nM
  OV function: <0.92

## Cn1ncc2c1Nc1ccccc1N(C(=O)c1cccc3ccccc13)C2 [TRGA-89, (1-methyl-4,10-dihydrobenzo[b]pyrazolo[3,4-e][1,4]diazepin-5 (1H)-yl)(naphthalen-1-YI)methanone]
other
  melting point: 231 to 233 °C

## Cn1ncc2c1Nc1ccccc1N(C(=O)C13C4C5C6C4C1C6C53)C2 (stereo not shown) [QB]
other
  melting point: 194 to 203 °C

## Cc1cccc(C(=O)N2Cc3cnn(C)c3Nc3ccccc32)c1 [WJ0823, (1-Methyl-4,10-dihydrobenzo[b]pyrazolo[3,4-e][1,4]diazepin-5 (1H)-yl)(m-tolyl)methanone]
[1]
  EC50: > 10000 nM
  IC50: > 10000 nM
other
  melting point: 254 to 256 °C
[2]
  Ki: 553 ± 155 nM
[4]
  Emax: 16.8%
  EC50: 407 ± 102 nM
[4]; IP1
  EC50 (OXTR agonist potency, mean ± s.d.): 420 ± 37 nM

## COc1ccccc1C(=O)N1Cc2cnn(C)c2Nc2ccccc21 [WJ0659, (2-Methoxyphenyl)(1-methyl-4,10-dihydrobenzo[b]pyrazolo[3,4-e][1,4]diazepin-5 (1H)-yl)methanone]
other
  melting point: 281 to 282 °C (dec.)

## Cn1ncc2c1Nc1ccccc1N(C(=O)c1ccc(O)cc1)C2 [TAR-B049, (4-hydroxyphenyl)(1-methyl-4,10-dihydrobenzo[b]pyrazolo[3,4-e][1,4]diazepin-5 (1H)-yl)methanone]
other
  melting point: > 300 °C

## CC1CCC(C(=O)N2Cc3cnn(C)c3Nc3ccccc32)CC1 (stereo not shown) [TAR-C41, (1-methyl-4,10-dihydrobenzo[b]pyrazolo[3,4-e][1,4]diazepin-5 (1H)-yl)(4-methylcyclohexyl)methanone]
other
  melting point: 234 to 239 °C

## Cn1ncc2c1Nc1ccccc1N(C(=O)c1ccc3c(c1)OCO3)C2 [TRGA95, benzo[d][1,3]dioxol-5-yl(1-methyl-4,10-dihydrobenzo[b]pyrazolo[3,4-e][1,4]diazepin-5 (1H)-yl)methanone]
[1]
  EC50: > 10000 nM
  IC50: 1530 ± 444 nM
[2]
  Ki: 159 ± 32 nM
[3]
  Ki: 18 ± 1 nM
[4]
  Emax: 13%
  EC50: 91 ± 25 nM
  OV function: 0.06

## Cc1cc(C(=O)N2Cc3cnn(C)c3Nc3ccccc32)ccc1CNC(=O)N1CCN(Cc2cc(O)cc(O)c2)CC1 [WAY, reference compound]
[4]
  Emax: 45%
  OV function: 0.69

## Cn1ncc2c1Nc1ccccc1N(C(=O)c1ccccc1Br)C2 [WJ0822, (2-Bromophenyl)(1-methyl-4,10-dihydrobenzo[b]pyrazolo[3,4-e][1,4]diazepin-5 (1H)-yl)methanone]
other
  melting point: 244 to 246 °C

## Cn1ncc2c1Nc1ccccc1N(C(=O)c1ccc(Cl)c(Cl)c1)C2 [WJ0824, (3,4-Dichlorophenyl)(1-methyl-4,10-dihydrobenzo[b]pyrazolo[3,4-e][1,4]diazepin-5 (1H)-yl)methanone]
[1]
  EC50: > 10000 nM
  IC50: > 10000 nM
[2]
  Ki: 1620 ± 243 nM
[3]
  Ki: 455 ± 112 nM
[4]
  Emax: 12.9%
  EC50: 438 ± 127 nM
[4]; IP1
  EC50 (OXTR agonist potency, mean ± s.d.): 321.8 nM

## Cn1ncc2c1Nc1ccccc1N(C(=O)c1ccc3ccccc3c1)C2 [TRGA-81, (1-methyl-4,10-dihydrobenzo[b]pyrazolo[3,4-e][1,4]diazepin-5 (1H)-yl)(naphthalen-2-yl)methanone]
other
  melting point: 228 to 243 °C

## CCCCCCOc1ccc(C(=O)N2Cc3cnn(C)c3Nc3ccccc32)cc1 [TAR-B085, (4-(hexyloxy)phenyl)(1-methyl-4,10-dihydrobenzo[b]pyrazolo[3,4-e][1,4]diazepin-5 (1H)-yl)methanone]
other
  melting point: 204 to 206 °C

## Cn1ncc2c1Nc1ccccc1N(C(=O)c1cccc(Br)c1)C2 [WJ0821, (3-Bromophenyl)(1-methyl-4,10-dihydrobenzo[b]pyrazolo[3,4-e][1,4]diazepin-5 (1H)-yl)methanone]
other
  melting point: 218 to 220 °C
